Results: PubChem BioAssay (NCI)
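96-well plates; 48 h exposure; 5 concentrations. Endpoints by linear interpolation between flanking doses. Not reached: highest tested concentration assigned. GI50 marks 50% less growth. TGI marks complete inhibition of growth.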

What was measured:
Assay in all cases: growth of human tumour cells (NCI), 48 h
RXF 393 renal = tested on: RXF 393 renal
IGROV1 ovarian = tested on: IGROV1 ovarian
HCT-116 colon = tested on: HCT-116 colon
NCI-H23 lung = tested on: NCI-H23 lung
COLO 205 colon = tested on: COLO 205 colon
LOX IMVI melanoma = tested on: LOX IMVI melanoma
SW-620 colon = tested on: SW-620 colon
HOP-62 NSCLC = tested on: HOP-62 NSCLC
MCF7 breast = tested on: MCF7 breast
HOP-92 NSCLC = tested on: HOP-92 NSCLC
A549 NSCLC = tested on: A549 NSCLC
UACC-257 melanoma = tested on: UACC-257 melanoma
CCRF-CEM leukemia = tested on: CCRF-CEM leukemia
HCT-15 colon = tested on: HCT-15 colon
SF-539 CNS = tested on: SF-539 CNS
HS 578T breast = tested on: HS 578T breast
MDA-MB-231 breast = tested on: MDA-MB-231 breast
SK-MEL-28 melanoma = tested on: SK-MEL-28 melanoma
U251 CNS = tested on: U251 CNS
SF-295 CNS = tested on: SF-295 CNS
SN12C renal = tested on: SN12C renal
BT-549 breast = tested on: BT-549 breast
M14 melanoma = tested on: M14 melanoma
UACC-62 melanoma = tested on: UACC-62 melanoma
ACHN renal = tested on: ACHN renal
KM12 colon = tested on: KM12 colon
SR leukemia = tested on: SR leukemia
OVCAR-5 ovarian = tested on: OVCAR-5 ovarian
SK-OV-3 ovarian = tested on: SK-OV-3 ovarian
DU-145 prostate = tested on: DU-145 prostate
NCI-H226 lung = tested on: NCI-H226 lung
OVCAR-3 ovarian = tested on: OVCAR-3 ovarian
NCI/ADR-RES ovarian = tested on: NCI/ADR-RES ovarian
HCC-2998 colon = tested on: HCC-2998 colon
PC-3 prostate = tested on: PC-3 prostate
NCI-H460 lung = tested on: NCI-H460 lung
SF-268 CNS = tested on: SF-268 CNS
HL-60(TB) leukemia = tested on: HL-60(TB) leukemia
SK-MEL-5 melanoma = tested on: SK-MEL-5 melanoma
SK-MEL-2 melanoma = tested on: SK-MEL-2 melanoma
NCI-H522 lung = tested on: NCI-H522 lung
T-47D breast = tested on: T-47D breast
CAKI-1 renal = tested on: CAKI-1 renal
HT29 colon = tested on: HT29 colon
A498 renal = tested on: A498 renal
TK-10 renal = tested on: TK-10 renal
SNB-75 CNS = tested on: SNB-75 CNS
MALME-3M melanoma = tested on: MALME-3M melanoma
MDA-MB-435 = tested on: MDA-MB-435
OVCAR-4 ovarian = tested on: OVCAR-4 ovarian
OVCAR-8 ovarian = tested on: OVCAR-8 ovarian
K-562 leukemia = tested on: K-562 leukemia
786-0 renal = tested on: 786-0 renal
EKVX NSCLC = tested on: EKVX NSCLC
MOLT-4 leukemia = tested on: MOLT-4 leukemia
SNB-19 CNS = tested on: SNB-19 CNS
UO-31 renal = tested on: UO-31 renal
RPMI-8226 leukemia = tested on: RPMI-8226 leukemia

SMILES: S=C(Sc1ccc(Cl)cc1)Sc1ccc(Cl)cc1
- GI50 (RXF 393 renal): 2.04 µM
- TGI (RXF 393 renal): 3.87 µM
- GI50 (IGROV1 ovarian): 1.81 µM
- TGI (IGROV1 ovarian): 3.47 µM
- GI50 (HCT-116 colon): 1.82 µM
- TGI (HCT-116 colon): 3.53 µM
- GI50 (NCI-H23 lung): 1.75 µM
- TGI (NCI-H23 lung): 3.78 µM
- GI50 (COLO 205 colon): 2.29 µM
- TGI (COLO 205 colon): 5.5 µM
- GI50 (LOX IMVI melanoma): 1.13 µM
- TGI (LOX IMVI melanoma): 2.37 µM
- GI50 (SW-620 colon): 1.62 µM
- TGI (SW-620 colon): 3.01 µM
- GI50 (HOP-62 NSCLC): 3.39 µM
- TGI (HOP-62 NSCLC): 7.58 µM
- GI50 (MCF7 breast): 2.38 µM
- TGI (MCF7 breast): 7.59 µM
- GI50 (HOP-92 NSCLC): 1.99 µM
- TGI (HOP-92 NSCLC): 5.01 µM
- GI50 (A549 NSCLC): 2.99 µM
- TGI (A549 NSCLC): 13.7 µM
- GI50 (UACC-257 melanoma): 5.04 µM
- TGI (UACC-257 melanoma): 16.6 µM
- GI50 (CCRF-CEM leukemia): 0.409 µM
- TGI (CCRF-CEM leukemia): 2.56 µM
- GI50 (HCT-15 colon): 1.77 µM
- TGI (HCT-15 colon): 4.71 µM
- GI50 (SF-539 CNS): 1.74 µM
- TGI (SF-539 CNS): 3.84 µM
- GI50 (HS 578T breast): 3.96 µM
- TGI (HS 578T breast): 16.3 µM
- GI50 (MDA-MB-231 breast): 2.19 µM
- TGI (MDA-MB-231 breast): 4.36 µM
- GI50 (SK-MEL-28 melanoma): 1.89 µM
- TGI (SK-MEL-28 melanoma): 3.49 µM
- GI50 (U251 CNS): 2.64 µM
- TGI (U251 CNS): 8.92 µM
- GI50 (SF-295 CNS): 1.01 µM
- TGI (SF-295 CNS): 6.58 µM
- GI50 (SN12C renal): 2.12 µM
- TGI (SN12C renal): 5.34 µM
- GI50 (BT-549 breast): 1.21 µM
- TGI (BT-549 breast): 3.16 µM
- GI50 (M14 melanoma): 2.03 µM
- TGI (M14 melanoma): 3.95 µM
- GI50 (UACC-62 melanoma): 3.15 µM
- TGI (UACC-62 melanoma): 10.6 µM
- GI50 (ACHN renal): 3.23 µM
- TGI (ACHN renal): 11 µM
- GI50 (KM12 colon): 2.74 µM
- TGI (KM12 colon): 8.64 µM
- GI50 (SR leukemia): 0.362 µM
- TGI (SR leukemia): 2.03 µM
- GI50 (OVCAR-5 ovarian): 2.32 µM
- TGI (OVCAR-5 ovarian): 4.81 µM
- GI50 (SK-OV-3 ovarian): 6.05 µM
- TGI (SK-OV-3 ovarian): 31.8 µM
- GI50 (DU-145 prostate): 3.6 µM
- TGI (DU-145 prostate): 11.4 µM
- GI50 (NCI-H226 lung): 2.1 µM
- TGI (NCI-H226 lung): 4.84 µM
- GI50 (OVCAR-3 ovarian): 1.74 µM
- TGI (OVCAR-3 ovarian): 3.12 µM
- GI50 (NCI/ADR-RES ovarian): 2.67 µM
- TGI (NCI/ADR-RES ovarian): 6.58 µM
- GI50 (HCC-2998 colon): 3.08 µM
- TGI (HCC-2998 colon): 10.3 µM
- GI50 (PC-3 prostate): 1.58 µM
- TGI (PC-3 prostate): 3.34 µM
- GI50 (NCI-H460 lung): 3.12 µM
- TGI (NCI-H460 lung): 13.4 µM
- GI50 (SF-268 CNS): 2.1 µM
- TGI (SF-268 CNS): 6.6 µM
- GI50 (HL-60(TB) leukemia): 1.93 µM
- TGI (HL-60(TB) leukemia): 8.62 µM
- GI50 (SK-MEL-5 melanoma): 1.68 µM
- TGI (SK-MEL-5 melanoma): 3.11 µM
- GI50 (SK-MEL-2 melanoma): 4.61 µM
- TGI (SK-MEL-2 melanoma): 16.7 µM
- GI50 (NCI-H522 lung): 1.11 µM
- TGI (NCI-H522 lung): 2.33 µM
- GI50 (T-47D breast): 1.94 µM
- TGI (T-47D breast): 5.72 µM
- GI50 (CAKI-1 renal): 2.96 µM
- TGI (CAKI-1 renal): 10.3 µM
- GI50 (HT29 colon): 1.95 µM
- TGI (HT29 colon): 3.99 µM
- GI50 (A498 renal): 2.91 µM
- TGI (A498 renal): 7.9 µM
- GI50 (TK-10 renal): 2.53 µM
- TGI (TK-10 renal): 5.27 µM
- GI50 (SNB-75 CNS): 3.5 µM
- TGI (SNB-75 CNS): 16.3 µM
- GI50 (MALME-3M melanoma): 2.31 µM
- TGI (MALME-3M melanoma): 4.8 µM
- GI50 (MDA-MB-435): 1.92 µM
- TGI (MDA-MB-435): 4.9 µM
- GI50 (OVCAR-4 ovarian): 3.03 µM
- TGI (OVCAR-4 ovarian): 10.9 µM
- GI50 (OVCAR-8 ovarian): 3.66 µM
- TGI (OVCAR-8 ovarian): 12.6 µM
- GI50 (K-562 leukemia): 1.87 µM
- TGI (K-562 leukemia): 7.63 µM
- GI50 (786-0 renal): 1.94 µM
- TGI (786-0 renal): 3.6 µM
- GI50 (EKVX NSCLC): 3.03 µM
- TGI (EKVX NSCLC): 13.6 µM
- GI50 (MOLT-4 leukemia): 1.27 µM
- TGI (MOLT-4 leukemia): 4.53 µM
- GI50 (SNB-19 CNS): 3.8 µM
- TGI (SNB-19 CNS): 16 µM
- GI50 (UO-31 renal): 1.31 µM
- TGI (UO-31 renal): 2.63 µM
- GI50 (RPMI-8226 leukemia): 1.09 µM
- TGI (RPMI-8226 leukemia): 3 µM
